Results on 22 compounds are retold here after patent US8193351B2, “HSP90 inhibitor” (Chugai Seiyaku Kabushiki Kaisha, priority 2006, dated 2012).

Structures are written as SMILES.

In one assay the test system is HCT116 cells. Kind of assay: Measurement of cell growth inhibition (Cell Counting Kit-8, four days). Format: cell-based. To be noted: Homo sapiens, HCT-116, 96 h; HCT116 colon cancer cell line, four days culture; read-out: Cell growth inhibitory activity (IC50, μM) HCT116. The method, then:
Cell growth inhibitory activities of the compounds of the present invention represented by formula (1) were measured by the following method.
Cells were maintained under conditions recommended by the provider of each cell line. Cells suspended in a medium were added to solutions containing various concentrations of the test substance, and the cells were cultured at 37° C. in a 5% CO2 incubator. Four days later, Cell Counting Kit-8 was added, and absorbance measurements were taken following the protocol included in the kit.
In general terms: Tetrazolium assays rely on reduction of a dye to a coloured formazan, in cell work by metabolically active cells.

A further assay deals with T1, Human HSP90 alpha (Homo sapiens, UniProt P07900).
T1 construct: made in house; host or cells: E. coli BL21 codon plus (Stratagene)
Kind of assay: Measurement of HSP90 enzyme inhibitory activity (ATPase, malachite green). To be noted: purified human HSP90 alpha, 1 mM ATP added, 37° C., two hours; read-out: Enzyme inhibitory activity (IC50, μM) Human HSP 90α. Format: biochemical. The procedure: HSP90 enzyme inhibitory activity of the compounds of the present invention represented by formula (1) was measured by the following method. Among the 6-phenyl-N-phenyl-(1,3,5)triazin/(1,3)pyrimidin-2,4-diamine derivatives which are known LPAAT-β inhibitors, the following two compounds were used as comparative compounds, and their HSP90 enzyme inhibitory activities were measured similarly by the following method.
Introduction of pETHuHSP90a into E. coli (BL21 codon plus; Stratagene) was followed by O/N incubation in the presence of 0.1 mM IPTG, and the collected E. coli cells were disrupted by ultrasonication in a Lysis buffer (50 mM Tris-HCl (pH8.0), 10 mM MgCl2, 0.1% Triton X-100, Protease inhibitor cocktail tablets (Roche Diagnostics)). The cell lysate solution was centrifuged (10,000 rpm×30 minutes), and the supernatant obtained after centrifugation was used as a crude extract. The crude extract was fractionated using HisPrep FF column and HiTrap Q column (Amersham) to prepare a purified enzyme solution.
An enzyme solution for assays was prepared by dilution of the purified enzyme solution using an assay buffer (50 mM Tris HCl pH7.6, 20 mM KCl, 5 mM MgCl2).
10 μL each of various concentrations of the test substances (10% DMSO solution) was added to each well, and for the positive control wells, 10 μL of 10% DMSO was added. 10 μL of 10% DMSO was also added to the negative control well.
10 μL of 1 mM ATP was added to all of the wells, and the reaction was carried out at 37° C. for two hours.

Consider `Nc1nc(SCCNC(=O)CO)cc(-c2c(Cl)cc3c4c(cccc24)COC3)n1` [Example 331, N-{2-[2-amino-6-(5-chloro-1H,3H-benzo[de]isochromen-6-yl)-pyrimidin-4-ylsulfanyl]-ethyl}-2-hydroxy-acetamide], for which the IC50 in the assay on HCT116 cells is 1.9 µM; on Human HSP90 alpha, 1.5 µM.
With `N#CCOc1cc(-c2nc(N)nc(SCCC(=O)N3CCOCC3)n2)c(Cl)cc1Cl` [Example 63, {5-[4-amino-6-(3-morpholin-4-yl-3-oxo-propylsulfanyl)-[1,3,5]triazin-2-yl]-2,4-dichlorophenoxy}-acetonitrile], the IC50 with HCT116 cells turned out to be 0.74 µM; at Human HSP90 alpha, 2 µM.
For `COCCNC(=O)CCSc1cc(-c2c(Cl)cc3c4c(cccc24)COC3)nc(N)n1` [Example 319, 3-[2-amino-6-(5-chloro-1H,3H-benzo[de]isochromen-6-yl)-pyrimidin-4-ylsulfanyl]-N-(2-methoxy-ethyl)-propionamide] the same measures were 0.62 µM and 2.1 µM.
For `CC(=O)NCCSc1nc(N)nc(-c2cc(OCC#N)c(Cl)cc2Cl)n1` [Example 59, N-{2-[4-amino-6-(2,4-dichloro-5-cyanomethoxy-phenyl)-[1,3,5]triazin-2-ylsulfanyl]-ethyl}-acetamide] the same measures were 0.12 µM and 1 µM.
On the same counts, the results for `COc1ccc(OC)c(Sc2cc(-c3ccc(OCC(N)=O)cc3C)nc(N)n2)c1` [Example 46, 2-{4-[2-amino-6-(2,5-dimethoxyphenylsulfanyl)-pyrimidin-4-yl]-3-methylphenoxy}-acetamide] are 8.1 µM and 1.5 µM.
`NC(=O)NCCSc1cc(-c2c(Cl)cc3c4c(cccc24)COC3)nc(N)n1` [Example 332, {2-[2-amino-6-(5-chloro-1H,3H-benzo[de]isochromen-6-yl)-pyrimidin-4-ylsulfanyl]-ethyl}-urea]: the IC50 in the assay on HCT116 cells worked out at 0.47 µM; at Human HSP90 alpha it was 2.2 µM.
In the case of `Nc1nc(SCCC(=O)NC[C@@H](O)CO)nc(-c2c(Cl)cc3c4c(cccc24)COC3)n1` [Example 335, 3-[4-amino-6-(5-chloro-1H,3H-benzo[de]isochromen-6-yl)-[1,3,5]triazin-2-ylsulfanyl]-N—((R)-2,3-dihydroxy-propyl)-propionamide], the IC50 in the assay on HCT116 cells stood at 0.49 µM; on Human HSP90 alpha, 1.2 µM.
On the same counts, the results for `N#CCNC(=O)CSc1nc(N)nc(-c2c(Cl)cc3c4c(cccc24)COC3)n1` [Example 333, 2-[4-amino-6-(5-chloro-1H,3H-benzo[de]isochromen-6-yl)-[1,3,5]triazin-2-ylsulfanyl]-N-cyano methyl-acetamide] are 0.38 µM and 1.9 µM.
As for `NC(=O)c1cc(-c2nc(N)nc(SCc3ccccc3)n2)c(Cl)cc1Cl` [Example 26, 5-(4-amino-6-benzylsulfanyl-[1,3,5]triazin-2-yl)-2,4-dichlorobenzamide], the results for the IC50 with HCT116 cells and at Human HSP90 alpha were 1.3 µM and 2.8 µM, respectively.
For `Nc1nc(SCCCO)cc(-c2c(Cl)cc3c4c(cccc24)COC3)n1` [Example 326, 3-[2-amino-6-(5-chloro-1H,3H-benzo[de]isochromen-6-yl)-pyrimidin-4-ylsulfanyl]-propan-1-ol] the same measures were 0.52 µM and 2.1 µM.
On the same counts, the results for `CC(=O)NCCCSc1nc(N)nc(-c2c(Cl)cc3c4c(cccc24)COC3)n1` [Example 149, N-{3-[4-amino-6-(5-chloro-1H,3H-benzo[de]isochromen-6-yl)-[1,3,5]triazin-2-ylsulfanyl]-propyl}-acetamide] are 0.11 µM and 2.8 µM.
On the same counts, the results for `CCOC(=O)c1cnc(Sc2cc(-c3cc(OCC#N)c(Cl)cc3Cl)nc(N)n2)[nH]1` [Example 55, 2-[2-amino-6-(2,4-dichloro-5-cyanomethoxyphenyl)-pyrimidin-4-ylsulfanyl]-3H-imidazol-4-carboxylic acid ethyl ester] are 5.3 µM and 1.7 µM.
On to `NC(=O)CSc1cc(-c2c(Cl)cc3c4c(cccc24)COC3)nc(N)n1` [Example 314, 2-[2-amino-6-(5-chloro-1H,3H-benzo[de]isochromen-6-yl)-pyrimidin-4-ylsulfanyl]-acetamide], for which the IC50 amounted to 1.1 µM with HCT116 cells and 1.3 µM on Human HSP90 alpha.
For `Nc1nc(SCCNC(=O)CO)nc(-c2c(Cl)cc3c4c(cccc24)COC3)n1` [Example 342, N-{2-[4-amino-6-(5-chloro-1H,3H-benzo[de]isochromen-6-yl)-[1,3,5]triazin-2-ylsulfanyl]-ethyl}-2-hydroxy-acetamide] the same measures were 0.49 µM and 1.3 µM.
On the same counts, the results for `CC(=O)NCCCSc1cc(-c2c(Cl)cc3c4c(cccc24)COC3)nc(N)n1` [Example 328, N-{3-[2-amino-6-(5-chloro-1H,3H-benzo[de]isochromen-6-yl)-pyrimidin-4-ylsulfanyl]-propyl}-acetamide] are 0.2 µM and 2.1 µM.
In the case of `Nc1nc(SCCC(=O)NCCO)cc(-c2c(Cl)cc3c4c(cccc24)COC3)n1` [Example 317, 3-[2-amino-6-(5-chloro-1H,3H-benzo[de]isochromen-6-yl)-pyrimidin-4-ylsulfanyl]-N-(2-hydroxy-ethyl)-propionamide], the values for the IC50 in the assay with HCT116 cells and on Human HSP90 alpha were 0.41 µM and 1.3 µM, respectively.
Take `COc1ccc(OC)c(Sc2cc(-c3cc(OCc4ccccc4)c(Cl)cc3Cl)nc(N)n2)c1` [Example 48, 4-(5-benzyloxy-2,4-dichlorophenyl)-6-(2,5-dimethoxyphenylsulfanyl)-pyrimidin-2-ylamine]: the IC50 was found to be 42.9 µM in the assay on HCT116 cells and 2.5 µM at Human HSP90 alpha.
For `COc1cc(C(=O)N2CCN(C)CC2)ccc1Sc1nc(N)nc(-c2cc(OCC#N)c(Cl)cc2Cl)n1` [Example 15, (5-{4-amino-6-[2-methoxy-4-(4-methyl-piperazin-1-carbonyl)-phenylsulfanyl]-[1,3,5]triazin-2-yl}-2,4-dichlorophenoxy)-acetonitrile] the same measures were 0.35 µM and 2 µM.
On the same counts, the results for `Nc1nc(SCCCO)nc(-c2c(Cl)cc3c4c(cccc24)COC3)n1` [Example 340, 3-[4-amino-6-(5-chloro-1H,3H-benzo[de]isochromen-6-yl)-[1,3,5]triazin-2-ylsulfanyl]-propan-1-ol] are 0.12 µM and 3.3 µM.
With `COc1ccc(OC)c(Sc2cc(-c3ccc(OCCCO)cc3C)nc(N)n2)c1` [Example 44, 3-{4-[2-amino-6-(2,5-dimethoxyphenylsulfanyl)-pyrimidin-4-yl]-3-methylphenoxy}-propan-1-ol], the results for the IC50 in the assay on HCT116 cells and on Human HSP90 alpha were 14.5 µM and 2.2 µM, respectively.
For `CC(CSc1nc(N)nc(-c2c(Cl)cc3c4c(cccc24)COC3)n1)C(=O)NCCO` (centres unmarked) [Example 338, 3-[4-amino-6-(5-chloro-1H,3H-benzo[de]isochromen-6-yl)-[1,3,5]triazin-2-ylsulfanyl]-N-(2-hydroxy-ethyl)-2-methyl-propionamide] the same measures were 0.12 µM and 1.5 µM.
On the same counts, the results for `CNC(=O)C(C)CSc1nc(N)nc(-c2c(Cl)cc3c4c(cccc24)COC3)n1` (centres unmarked) [Example 337, 3-[4-amino-6-(5-chloro-1H,3H-benzo[de]isochromen-6-yl)-[1,3,5]triazin-2-ylsulfanyl]-2,N-dimethyl-propionamide] are 0.018 µM and 1.5 µM.

By IC50 is commonly meant the concentration at which inhibition is half-maximal.
